# According to article PMC6036094 (International Journal of Medical Sciences, 2018):
# Like-named read-outs stand apart in the source and are kept apart here.
# Format: in vivo, Male Wistar rats
# Conditions: for Concentration in kidneys / Concentration in small intestine / Kidney-to-plasma concentration ratio / Skin tissue-to-plasma concentration ratio / Small intestine-to-plasma concentration ratio / Concentration in skin tissue: mean ± SD; for concentration at 1 h / concentration at 8 h / concentration at 24 h: male, Wistar, rat, po
# [1] = 1 to 24 h after oral administration
Skin tissue-to-plasma concentration ratio (1 h after oral administration),Skin tissue-to-plasma concentration ratio (24 h after oral administration),concentration at 1 h (kidneys),concentration at 8 h (kidneys),concentration at 24 h (kidneys),concentration at 1 h (skin tissue),concentration at 8 h (skin tissue),concentration at 1 h (small intestine),concentration at 8 h (small intestine),Time course of kidney-to-plasma concentration ratio [1],SMILES,other results
0.18±0.18,0.26±0.20,–,–,–,–,–,–,–,–,"Cc1ccc([C@@H]2O[C@H](CO)[C@@H](O)[C@H](O)[C@H]2O)cc1Cc1ccc(-c2ccc(F)cc2)s1 [Canagliflozin, canagliflozin]",Concentration in kidneys (1 h after oral administration): 802.7 ± 269.2 ng/g; Concentration in small intestine (1 h after oral administration): 2925.2 ± 1074.2 ng/g; Kidney-to-plasma concentration ratio (1 h after oral administration): 3.69±2.84; Small intestine-to-plasma concentration ratio (1 h after oral administration): 12.93±9.88; Concentration in kidneys (8 h after oral administration): 1014.1 ± 306.0 ng/g; Concentration in skin tissue (8 h after oral administration): 82.6 ± 22.9 ng/g; Concentration in small intestine (8 h after oral administration): 440.1 ± 117.2 ng/g; Kidney-to-plasma concentration ratio (8 h after oral administration): 2.11±0.54; Skin tissue-to-plasma concentration ratio (8 h after oral administration): 0.17±0.03; Small intestine-to-plasma concentration ratio (8 h after oral administration): 0.92±0.20; Concentration in kidneys (24 h after oral administration): 636.2 ± 222.5 ng/g; Concentration in skin tissue (24 h after oral administration): 20.1 ± 11.6 ng/g; Concentration in small intestine (24 h after oral administration): 325.9 ± 218.0 ng/g; Kidney-to-plasma concentration ratio (24 h after oral administration): 7.55±2.62; Small intestine-to-plasma concentration ratio (24 h after oral administration): 4.05±2.83
–,–,1030 ± 521 ng/g,531 ± 191 ng/g,170 ± 40.2 ng/g,42.6 ± 24.7 ng/g,13 ± 5 ng/g,37.9 ± 10.3 ng/g,19.7 ± 6.7 ng/g,–,"CCOc1ccc(Cc2cc([C@@H]3O[C@H](CO)[C@@H](O)[C@H](O)[C@H]3O)ccc2Cl)cc1 [Dapagliflozin, dapagliflozin]",–
0.45±0.20,5.82±3.66,1420 ± 405 ng/g,1090 ± 456 ng/g,301 ± 86.9 ng/g,152 ± 53.4 ng/g,168 ± 28.7 ng/g,730 ± 377 ng/g,348 ± 105 ng/g,tended to increase,"OC[C@H]1O[C@@H](c2ccc(F)c(Cc3cc4ccccc4s3)c2)[C@H](O)[C@@H](O)[C@@H]1O [Ipragliflozin, ipragliflozin]","Time course of skin tissue-to-plasma concentration ratio [1]: increased in a time-dependent manner; Skin tissue-to-plasma concentration ratio (1 h after oral administration, listed as ipragliflozin): 0.45 ± 0.20; Skin tissue-to-plasma concentration ratio (24 h after oral administration, listed as ipragliflozin): 5.82 ± 3.66; concentration at 24 h (skin tissue, 1 mg/kg): 90.6 ± 38.9 ng/g"
–,–,94.9 ± 74.3 ng/g,80.1 ± 51.7 ng/g,–,–,–,251 ± 178 ng/g,–,–,"CCOc1ccc(Cc2cc([C@@H]3S[C@H](CO)[C@@H](O)[C@H](O)[C@H]3O)c(OC)cc2C)cc1 [Luseogliflozin, luseogliflozin]",–
–,–,848 ± 116 ng/g,492 ± 101 ng/g,201 ± 42.9 ng/g,103 ± 29.2 ng/g,27.1 ± 3.2 ng/g,1360 ± 513 ng/g,250 ± 114 ng/g,increased time-dependently,"CCc1ccc(Cc2ccc3c(c2)[C@]2(OC3)O[C@H](CO)[C@@H](O)[C@H](O)[C@H]2O)cc1 [Tofogliflozin, tofogliflozin]",–
